Laboratory results from patent US12153056B2, “Compositions for and methods of diagnosing, prognosing, and treating diabetes” (Washington University, priority 2019, dated 2024).
“Also recorded” adds a separate entry of the source. Bridge positions count the residues as written; N and C are the ends. Ends that are not written are not given here.

Columns and labels:
[1] = test system: B:13-21-specific IIT-3 and B:12-20-specific 9B9 T cell hybridoma; assay: T cell hybridoma responses to C3g7 APCs treated with or without chloroquine and pulsed with antigens; format: cell-based; settings: C3g7 APCs with or without 100 μM chloroquine for 2 h
Experimental: (§1) In FIG. 5i, ConA-stimulated peritoneal macrophages were treated with 0.2 or 1 μM S961 for 1 h at 37° C. and were then cultured with the IIT-3 T cell hybridoma that recognizes the 13-21 peptide, in the presence of serially diluted insulin (19278; Sigma). In FIG. 6e, C3g7 cells were treated with chloroquine for 2 h at 37° C., washed, pulsed with the antigens, and cultured with T cell hybridomas. After incubation for 18 h, the culture supernatants were assayed for IL-2 production.

10E11 CD4 T cells = assay: Two-photon motility assay of anti-HEL 10E11 T cells in mice given HEL; format: in vivo, NOD mice; settings: inguinal lymph nodes, day 3 post transfer, indicated amounts of HEL
Experimental: (§2) CFSE- or CMTMR-labelled T cells were mixed 1:1 and were injected intravenously. For all the two-photon experiments, 2×10^6 T cells with either label were transferred. […] All the recipient mice were 3-4-week-old female mice unless otherwise mentioned. For experiments in FIG. 4f, FACS-sorted 8F10 T cells from pooled iLNs of 8-10 NOD or B16A mice were adoptively transferred intravenously into 4-6-week old NOD. Rag1÷ recipients (10^5 cells per mouse).
Lymph nodes were removed, attached to coverslips, placed in CO2-independent medium (Gibco) at room temperature and immediately imaged in a perfusion chamber to simulate blood flow (36.5° C. DMEM; 95% O2 and 5% CO2). Two-photon microscopy images were collected using a customized Leica SP8 Two-Photon Microscope (Leica Microsystems) equipped with a 25× and 0.95 numerical aperture water-immersion objective and a Mai Tai HP DeepSee Laser (Spectra-Physics) tuned to 840 nm. Fluorescence emission was guided directly to external hybrid photodetectors (Leica/Hamamatsu). […]
(§3) For cell tracking, two or three regions of one lymph node were randomly selected and cropped. […] We also calculated the meandering index and the motility coefficient for each track. […] The mean track velocities (μm/min) were calculated for individual tracks as previously described^11.

insulin receptor [2] = biological target: T1, insulin receptor (Mus musculus, UniProt P15208); assay: In vivo blockade of insulin receptor by S961 infusion via osmotic pump, blood glucose; set-up: from tissue; host or cells: whole animal (NOD mice), in vivo; settings: S961 20 nMol/week via osmotic pump, 3-week old NOD mice, versus PBS
Experimental: The S961 peptide ([…] (SEQ ID NO: 33)) was synthesized by LifeTein, with an intrachain disulphide bridge between Cys33 and Cys40 (underlined). S961 (20 nMol/week) or control PBS was filled into the Alzet osmotic pump (2001 model, Durect) and inserted subcutaneously in the back of anaesthetized mice through an incision between scapula. Blood glucose levels were monitored twice a day (Chemstrip 2GP; Roche); mice with a level above 250 mg/dl for two consecutive measurements were considered diabetic.

insulin receptor [3] = biological target: T1, insulin receptor; assay: Two-photon imaging motility assay of transferred T cells in lymph nodes of mice infused with S961 or PBS; format: in vivo, NOD mice; set-up: from tissue; host or cells: whole animal (NOD mice), in vivo; settings: S961 infusion versus PBS, day 3 post transfer
Experimental: as §2
Lymph nodes were removed, attached to coverslips, placed in CO2-independent medium (Gibco) at room temperature and immediately imaged in a perfusion chamber to simulate blood flow (36.5° C. DMEM; 95% O2 and 5% CO2). […] Fluorescence emission was guided directly to external hybrid photodetectors (Leica/Hamamatsu). […]
as §3
The S961 peptide ([…] (SEQ ID NO: 33)) was synthesized by LifeTein, with an intrachain disulphide bridge between Cys33 and Cys40 (underlined). […] Blood glucose levels were monitored twice a day (Chemstrip 2GP; Roche); mice with a level above 250 mg/dl for two consecutive measurements were considered diabetic.

insulin receptor [4] = biological target: T1, insulin receptor; assay: Antigen presentation assay: ConA-activated peritoneal macrophages treated with S961, insulin pulse, IIT-3 T cell hybridoma; format: cell-based; set-up: endogenous in cells; host or cells: ConA-stimulated peritoneal macrophages; settings: 0.2 or 1 μM S961 for 1 h before insulin; IIT-3 hybridoma, IL-2 production
Experimental: as §1

I-A^g7-expressing APCs = assay: Intravenous injection of Alexa Fluor 488-conjugated B:9-23, binding to splenic and thymic APCs by flow cytometry; format: in vivo, mice; settings: 100 μg intravenously, one hour later
Experimental: FIG. 11a-FIG. 11c: Characterization of circulating B:9-23 and its localization into lymphoid organs. a, Unmodified synthetic B:9-23 (3 pmol) was spiked into 1 ml PBS, purified using C18 tips, lyophilized, and analyzed by nLC-MS/MS. […] An hour later, spleens and thymi were harvested, digested with liberase and DNase, and binding to splenic and thymic APCs was measured by flow cytometry. b, Representative FACS plots showing the binding of B:9-23 to splenic XCR1^+ and Sirpα^+ dendritic cell (DC) subsets and B cells (top). The bar graph summarizes cumulative results from individual mice (each point), pooled from three independent experiments. ns, not significant; **P<0.05; ***P<0.01; ****P<0.005, two-tailed unpaired Student's t-test. c, Representative FACS plots showing the binding of B:9-23 to thymic XCR1^+ and Sirpα^+ DC subsets and to CD45^− cells expressing MHCII. Data are mean±S.D from five individual mice per strain from two independent experiments.

T1 sequence (P15208 28-748 limits assumed): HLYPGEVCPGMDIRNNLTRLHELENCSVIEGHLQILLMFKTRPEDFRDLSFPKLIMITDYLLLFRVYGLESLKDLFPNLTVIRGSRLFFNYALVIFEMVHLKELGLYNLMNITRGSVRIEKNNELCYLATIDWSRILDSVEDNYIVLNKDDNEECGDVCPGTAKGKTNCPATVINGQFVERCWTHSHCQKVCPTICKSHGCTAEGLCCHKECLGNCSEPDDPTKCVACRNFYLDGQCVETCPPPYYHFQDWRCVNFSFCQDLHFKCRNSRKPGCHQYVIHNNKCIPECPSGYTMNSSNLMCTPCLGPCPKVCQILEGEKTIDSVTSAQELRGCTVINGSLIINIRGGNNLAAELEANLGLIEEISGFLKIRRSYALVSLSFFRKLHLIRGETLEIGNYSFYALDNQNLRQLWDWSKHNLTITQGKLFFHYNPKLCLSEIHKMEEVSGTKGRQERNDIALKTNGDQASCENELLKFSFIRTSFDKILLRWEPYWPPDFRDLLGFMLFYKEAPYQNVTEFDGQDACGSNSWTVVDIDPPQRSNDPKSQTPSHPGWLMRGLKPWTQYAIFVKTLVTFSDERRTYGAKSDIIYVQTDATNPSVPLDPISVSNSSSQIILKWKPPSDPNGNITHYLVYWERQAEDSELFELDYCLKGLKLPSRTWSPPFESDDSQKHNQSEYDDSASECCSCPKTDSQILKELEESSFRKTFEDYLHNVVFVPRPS
T1 sequence (P15208 753-1372 partner limits assumed): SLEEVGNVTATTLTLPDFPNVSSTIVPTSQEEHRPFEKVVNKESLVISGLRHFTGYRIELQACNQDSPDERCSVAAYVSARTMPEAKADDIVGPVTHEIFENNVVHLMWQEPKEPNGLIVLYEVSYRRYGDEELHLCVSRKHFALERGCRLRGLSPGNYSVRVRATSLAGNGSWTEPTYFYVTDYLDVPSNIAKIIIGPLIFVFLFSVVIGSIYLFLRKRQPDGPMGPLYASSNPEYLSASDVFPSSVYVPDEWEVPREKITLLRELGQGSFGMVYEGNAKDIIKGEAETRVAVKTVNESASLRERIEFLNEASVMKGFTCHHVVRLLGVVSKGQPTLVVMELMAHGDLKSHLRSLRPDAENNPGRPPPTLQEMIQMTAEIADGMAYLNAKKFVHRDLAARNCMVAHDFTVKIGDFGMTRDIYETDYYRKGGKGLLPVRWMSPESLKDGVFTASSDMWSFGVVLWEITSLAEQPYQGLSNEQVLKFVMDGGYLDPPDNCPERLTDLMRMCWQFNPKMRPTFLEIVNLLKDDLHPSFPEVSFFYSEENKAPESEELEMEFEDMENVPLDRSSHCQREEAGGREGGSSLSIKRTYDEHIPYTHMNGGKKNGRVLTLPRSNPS

Q: For “B:9-23: insulin B-chain peptide, segment 9-23 (SHLVEALYLVCGERG)”, which “need for internal processing for T cell reactivity” value [1] is on record?
A: not to B:9-23 or B:1-30 require internal processing

Q: With “HEL: hen egg lysozyme, control antigen recognized by 10E11 CD4 T cells” as the substance, how does the “10E11 T cell velocities” value (10E11 CD4 T cells) read?
A: progressive reduction of the 10E11 T cell velocities as the antigen amount increases

Q: How did the blood glucose levels (insulin receptor [2]) turn out when “S961: insulin receptor antagonist peptide GSLDESFYDWFERQLGGGSGGSSLEEEWAQIQCEVWGRGCPSY (SEQ ID NO: 33), synthesized by LifeTein (disulfide 33-40; listed as Mus musculus)” was run?
A: sustained increase in blood glucose levels

Q: And the “motility arrest of 8F10 T cells” value (insulin receptor [3])?
A: remained at a comparable level; also recorded: comparable level of motility arrest

Q: And the “reduction in mean velocity (motility) of transferred 4F7 T cells” value (insulin receptor [3])?
A: the magnitude of the reduction was significantly smaller than with PBS; also recorded: partial reduction of the 4F7 T cell motility

Q: What about the “ability of ConA-activated macrophages to present insulin” value (insulin receptor [4]) of the same substance?
A: impaired

Q: With “fluorochrome-labelled B:9-23: Alexa Fluor 488-conjugated B:9-23 peptide (SHLVEALYLVCGERG; also: Alexa Fluor 488-conjugated (position not given here))” as the substance, how does the “display by APCs in spleen” value (I-A^g7-expressing APCs) read?
A: rapidly displayed by I-A^g7-expressing APCs in spleen

Q: And the “display by APCs in thymus” value (I-A^g7-expressing APCs)?
A: not in thymus

Q: How did the “need for internal processing for T cell reactivity” value [1] turn out when “insulin: insulin (19278; Sigma) used as antigen” was run?
A: require internal processing
